# In PMC8378549 (Antiviral research, 2021):
# Test system: TCRV (strain TRVL 11573)
# Design: species or system AG129 mice
# Conditions: mouse, in vivo
structure (smiles),measurement,value
"NC(=O)c1ncn([C@@H]2O[C@H](CO)[C@@H](O)[C@H]2O)n1 [Ribavirin, ribavirin]",Infectious TCRV Liver,"4.3, 3.5 log10 CCID50/mL"
same,Infectious TCRV Serum,"2.5, ND log10 CCID50/mL"
same,Infectious TCRV Spleen,"6.1, 5.5 log10 CCID50/mL"
same,survival,82%
same,viral loads on day 9 p.i. compared to placebo,only modestly reduced viral loads
